Test results as given in patent publication US20240423914A1, “AMIDE CONTAINING LIPIDS” (Acuitas Therapeutics, Inc., priority 2023, published 2024).

System: human IgG in mouse serum
Assay: Immunoglobulin G (IgG) mRNA in vivo evaluation using lipid nanoparticle compositions (human IgG ELISA of mouse serum)
Set-up: species or system CD-1/ICR mice
Details: lipid formulated as LNP (cationic lipid/DSPC/cholesterol/PEG lipid) with IgG mRNA, tail vein injection, mice, serum measured 24 hours after administration; for Serum IgG (ug/mL) @ 0.3 mg/kg: 0.3 mg mRNA/kg; for Serum IgG (ug/mL) @ 1.0 mg/kg: 1.0 mg mRNA/kg
Procedure: A lipid of Formula (I), DSPC, cholesterol and PEG-lipid of Formula (II) are solubilized in ethanol at a molar ratio of 50:10:38.5:1.5 or 47.5:10:40.7:1.8. Lipid nanoparticles (LNP) are prepared at a total lipid to mRNA weight ratio of approximately 10:1 to 40:1. Briefly, the mRNA is diluted to 0.2 mg/mL in 10 to 50 mM citrate buffer, pH 4 to 6 or 10 to 25 mM acetate buffer, pH 4 to 6. Syringe pumps are used to mix the ethanolic lipid solution with the mRNA aqueous solution at a ratio of about 1:5 to 1:3 (vol/vol) with total flow rates above 15 mL/min. The ethanol is then removed, and the external buffer replaced with PBS by dialysis. Finally, the lipid nanoparticles are filtered through a 0.2 μm pore sterile filter.
Studies are performed in 6-8-week-old CD-1/ICR mice (Charles River or Inotiv) according to guidelines established by an institutional animal care committee (ACC) and the Canadian Council on Animal Care (CCAC). Varying doses of mRNA-lipid nanoparticle are systemically administered by tail vein injection and animals euthanized at a specific time point (e.g., 24 hours) post-administration. The whole blood is collected, and the serum subsequentially separated by centrifuging the tubes of the whole blood at 2000×g for 10 minutes at 4° C. and stored at −80° C. until use for analysis.
For immunoglobulin G (IgG) ELISA (Life Diagnostics Human IgG ELISA kit), the serum samples are diluted at 100 to 20,000 fold with 1× diluent solution. 100 μL of diluted serum is dispensed into anti-human IgG coated 96-well plate in duplicate alongside human IgG standards and incubated in a plate shaker at 150 rpm at 25° C. for 45 minutes. The wells are washed 5 times with 1× wash solution using a plate washer (400 μL/well). 100 μL of HRP conjugate is added into each well and incubated in a plate shaker at the same condition above. The wells are washed 5 times again with 1× wash solution using a plate washer (400 μL/well). 100 μL of TMB reagent is added into each well and incubated in a plate shaker at the same condition above. The reaction is stopped by adding 100 μL of Stop solution to each well. The absorbance is read at 450 nm (A450) with a microplate reader. The amount of human IgG in mouse serum is determined by plotting A450 values for the assay standard against human IgG concentration.
Representative compounds of the disclosure shown in Table 2 were formulated using the following molar ratio: 50% cationic lipid/10% distearoylphosphatidylcholine (DSPC)/38.5% Cholesterol/1.5% PEG lipid 2-[2-(ω-methoxy(polyethyleneglycol2000)ethoxy]-N,N-ditetradecylacetamide) or 47.5% cationic lipid/10% DSPC/40.7% Cholesterol/1.8% PEG lipid. Relative activity was determined by measuring the amount of human IgG in mouse serum as described in Example 2. The activity was compared at a dose of 1.0 or 0.3 mg mRNA/kg and expressed as ng luciferase/g liver measured 4 hours after administration, as described in Example 1 or as μg IgG/mL serum measured 24 hours after administration, as described in Example 2. Compound numbers in Table 2 refer to the compound numbers of Table 1.

Compound | Serum IgG (ug/mL) @ 0.3 mg/kg [µg/mL] | Serum IgG (ug/mL) @ 1.0 mg/kg [µg/mL]
CCCCCCCCCCN(CCCCCCCCCC)C(=O)CCCCCCCCC(CCCCCCCCC(=O)N(CCCCCCCCCC)CCCCCCCCCC)N(CCCCCCCCCC)C(=O)CCN(C)C [Compound I-1, N^1,N^1,N^19,N^19-tetrakis(decyl)-10-(N-decyl-3-(dimethylamino)propanamido)nonadecanediamide] | 18.5 ± 6.7 | –
CCCCCCCCCCN(CCCCCCCCCC)C(=O)CCCCCCCN(CCCCCCCC(=O)N(CCCCCCCCCC)CCCCCCCCCC)C(=O)C(F)CCN(C)C (stereo not shown) [Compound I-2, N,N-didecyl-8-(N-(8-(didecylamino)-8-oxooctyl)-4-(dimethylamino)-2-fluorobutanamido)octanamide] | 23.2 ± 6.1 | 69.8 ± 18.2
CCCCCCCCCCN(CCCCCCCCN(CCCCCCCC(=O)N(CCCCCCCCCC)CCCCCCCCCC)C(=O)C(F)CCN(C)C)C(=O)CCCCCCCCC (stereo not shown) [Compound I-3, N-decyl-N-(8-(N-(8-(didecylamino)-8-oxooctyl)-4-(dimethylamino)-2-fluorobutanamido)octyl)decanamide] | 16.2 ± 4.3 | 52.7 ± 8.4
CCCCCCCCCCN(CCCCCCCCCC)C(=O)CCCCCCCN(CCCCCCCC(=O)N(CCCCCCCCCC)CCCCCCCCCC)C(=O)CN(C)C [Compound I-4, N,N-didecyl-8-(N-(8-(didecylamino)-8-oxooctyl)-2-(dimethylamino)acetamido)octanamide] | 24.2 ± 4.5 | –
CCCCCCCCCCN(CCCCCCCCN(CCCCCCCC(=O)N(CCCCCCCCCC)CCCCCCCCCC)C(=O)CN(C)C)C(=O)CCCCCCCCC [Compound I-5, N-decyl-N-(8-(N-(8-(didecylamino)-8-oxooctyl)-2-(dimethylamino)acetamido)octyl)decanamide] | 25.9 ± 11.8 | 73.4 ± 14.9
CCCCCCCCCCN(CCCCCCCCCC)C(=O)CCCCCCCN(CCCCCCCC(=O)N(CCCCCCCCCC)CCCCCCCCCC)C(=O)OCCN(C)C [Compound I-6, 2-(dimethylamino)ethyl bis(8-(didecylamino)-8-oxooctyl)carbamate] | 20.5 ± 4.0 | 197.5 ± 39.3
CCCCCCCCCCN(CCCCCCCCCC)C(=O)CCCCCCCN(CCCCCCCC(=O)N(CCCCCCCCCC)CCCCCCCCCC)C(=O)OCCCN(C)C [Compound I-7, 3-(dimethylamino)propyl bis(8-(didecylamino)-8-oxooctyl)carbamate] | 30.8 ± 7.5 | –
CCCCCCCCCCN(CCCCCCCCCC)C(=O)CCCCCCCCCN(CCCCCCCCCC(=O)N(CCCCCCCCCC)CCCCCCCCCC)C(=O)OCCCN(C)C [Compound I-8, 3-(dimethylamino)propyl bis(10-(didecylamino)-10-oxodecyl)carbamate] | 10.6 ± 5.0 | –
CCCCCCCCCCN(CCCCCCCCCC)C(=O)CCCCCCCCC(CCCCCCCCC(=O)N(CCCCCCCCCC)CCCCCCCCCC)OC(=O)CCCCN(C)C [Compound I-9, 1,19-bis(didecylamino)-1,19-dioxononadecan-10-yl 5-(dimethylamino)pentanoate] | 13.4 ± 7.5 | 59.5 ± 25.6
CCCCCCCCCCN(CCCCCCCCCC)C(=O)CCCCCCCCC(CCCCCCCCC(=O)N(CCCCCCCCCC)CCCCCCCCCC)OC(=O)CCCN(C)C [Compound I-10, 1,19-bis(didecylamino)-1,19-dioxononadecan-10-yl 4-(dimethylamino)butanoate] | 19.0 ± 3.3 | –
CCCCCCCCCCN(CCCCCCCCCC)C(=O)CCCCCCCCC(CCCCCCCCC(=O)N(CCCCCCCCCC)CCCCCCCCCC)N(CCCCCCCCCC)C(=O)C(F)CCCN(C)C (stereo not shown) [Compound I-12, N^1,N^1,N^19,N^19-tetrakis(decyl)-10-(n-decyl-5-(dimethylamino)-2-fluoropentanamido)nonadecanediamide] | 13.9 ± 4.7 | –
CCCCCCCCCCN(CCCCCCCCCC)C(=O)CCCCCCCCC(CCCCCCCCC(=O)N(CCCC)C(CCCCCCCC)CCCCCCCC)N(CCCCCCCCCC)C(=O)CCN(C)C (stereo not shown) [Compound I-17, N^1-butyl-N^19,N^19-didecyl-10-(n-decyl-3-(dimethylamino)propanamido)-N-(heptadecan-9-yl)nonadecanediamide] | 10.1 ± 4.03 | –
CCCCCCCCCCN(CCCCCCCCCC)C(=O)CCCCCC(CCCCCC(=O)N(CCCCCCCCCC)CCCCCCCCCC)OC(=O)CCCN(C)C [Compound I-18, 1,13-bis(didecylamino)-1,13-dioxotridecan-7-yl 4-(dimethylamino)butanoate] | 18.0 ± 2.0 | –
CCCCCCCCCCCCN(CCCCCCCCCCN(CCCCCCCCCCN(CCCCCCCCCCCC)C(=O)CCCCCCC)C(=O)OCCCN1CCCC1)C(=O)CCCCCCC [Compound I-20, 3-(pyrrolidin-1-yl)propyl bis(10-(n-dodecyloctanamido)decyl)carbamate] | 7.9 ± 3.6 | –
